Data reported in patent US9387215B2, “Animal feed including cationic cholesterol additive and related methods” (priority 2013, dated 2016).

Columns and labels:
Assay type in all cases: in vivo
[1] = Confined animal feed operation study of chickens, additive in drinking water; conditions: for Harvest weight / Weight gain: day one through day 35, CSA-44 5 ppm in drinking water, control tetracycline in feed; for Death loss: in vivo
Description: A study of 50,000 birds performed in 2 groups of 25,000 birds was performed on a confined animal feed operation. The following cationic cholesterol additive (CSA-44) was added to animal drinking water:
The additive was prepared in drinking water at a concentration of 5 ppm. The dry feed administered to the chickens contained no antibiotic.
A control group of birds was delivered tetracycline in animal feed according to conventional practices.
The cationic cholesterol additive was given from day one through day 35.

C. difficile ATCC 9689 = experiment: Weight gain of mice after C. difficile challenge; conditions: oral 10 mg/kg once, 24 and 48 hours after 1×10^5 cfu or 72 hours after 1×10^6 cfu challenge; FIG. 3
Description: In another study with the mice of Example 2, a cationic cholesterol additive was administered to determine changes in weight gain. The compound was administered orally @10/mg/kg once, 24 and 48 hours after C. difficile ATCC 9689 challenge at 1×10^5 cfu (or CFU) or 72 hours after challenge with 1×10^6 cfu (or CFU) (Day 0). The results are illustrated in the graph of FIG. 3.

C. difficile = experiment: LD50 C. difficile challenge model, survival of mice; conditions: administered 24 hours after C. difficile challenge; Day 0, Day 3, Day 10; versus control mice; FIG. 5
Description: The mice of Example 2 were also evaluated for decreased morbidity in an LD50 C. difficile challenge model. The cationic cholesterol compound was administered 24 hours after C. difficile challenge (“Tx 24 Hr.”). FIG. 4 illustrates the steps used in performing the study.

[2] = test system: Lactobacillus bacteria (LAB); experiment: Lactobacillus bacteria (LAB) concentration in ileum, cecum and colon of mice after oral CSA-44; conditions: 10 mg/kg oral gastric lavage, 12 and 24 hours post Tx
Description: To evaluate the effectiveness of cationic cholesterol compounds on GI microbiota, the following compound (CSA-44) was administered oraly by gastric lavage to mice at 10 mg/kg:
To determine the health improvements caused by the cationic cholesterol compound, the concentration (cfu/mL) of Lactobacillus bacteria (LAB) (beneficial flora) in the ileum, cecum, and colon was determined at 12 and 24 hours. The LAB concentration was compared to control mice.
As illustrated in the graphs of FIGS. 1 and 2, the cationic cholesterol compound appears to have a significant “sparing” effect on beneficial Lactobacillus bacteria (LAB) flora (log values on y-axis) in the ileum, cecum and colon (on x-axis) when compared to control mice at 12 and 24 hours after being given CSA-44 (“post Tx”), resulting in almost a 2 log increase in LAB concentration in all 3 segments of the intestine when compared to control mice. This increase in LAB concentration flora is a surprising and unexpected result.

| Compound | Harvest weight ([1]; chickens) [lbs] | Weight gain ([1]; chickens) [lbs per day] | Death loss [1] | Weight gain after challenge with C. difficile (C. difficile ATCC 9689) | Feed conversion efficiency improved ([1]; chickens, 5 ppm in drinking water, versus tetracycline control) [%] | Survival rate (C. difficile) | Increase in LAB concentration compared to control mice [2] [log] |
| --- | --- | --- | --- | --- | --- | --- | --- |
| CN(C)[C@@H]1C(O)=C(C(N)=O)C(=O)[C@@]2(O)C(O)=C3C(=O)c4c(O)cccc4[C@@](C)(O)[C@H]3C[C@@H]12 [tetracycline, reference compound] | 3.85 | 0.112 | 1400-1500 birds | – | – | – | – |
| CCCCCCCCOC(=O)CC[C@@H](C)[C@H]1CC[C@H]2[C@@H]3[C@H](OC(=O)CCN)C[C@@H]4C[C@H](OC(=O)CCN)CC[C@]4(C)[C@H]3C[C@H](OC(=O)CCN)[C@]12C [CSA-44] | 4.22 | 0.120 | 535 birds | trend for the treated mice to have greater weight gain | 8 | improved survival rate | ~2 |
